Data on 29 molecules can be found in patent publication US4302448A, “Secretin preparations with intensified and protracted action, process for their manufacture, their use as well as dihydroxybenzoyl-L-tyrosine” (Hoechst Aktiengesellschaft, priority 1979, dated 1981).

In the assay the test system is Pancreatic juice secretion of the rat. Kind of assay: Pancreatic juice secretion of the rat after subcutaneous administration of secretin with depot bodies. To be noted: for Δ% vs. control (percentage by which the pancreatic secretion is above the basal secretion after 5 hours) / Rel. Intensity of effect over 5 hours (total pancreatic juice secretion over 5 hours as compared with control): rat, subcutaneous, 5 CU/kg secretin + 10 mg depot body/animal; for Δ% vs. control (percentage by which the pancreatic secretion is above the basal secretion after 5 hours): control=100%, measure of depot effect; for Rel. Intensity of effect over 5 hours (total pancreatic juice secretion over 5 hours as compared with control): control (0.9% of NaCl)=1. Format: in vivo. On the procedure:
Secretin preparations for subcutaneous application which contained the depot bodies specified in the following Table were tested in animal experiments. In the experimental procedure chosen, 5 to 8 male rats weighing 300 to 500 g each are administered subcutaneously 5 CU/kg of secretin (CU means clinical unit) and 10 mg of the depot body to be tested each in aqueous solution or suspension.
The animals remain without food for 18 hours prior to the test, but they are given water ad libitum. Under urethane anaesthesia (5 ml/kg i.m. of 25% urethane) the abdomen is opened by median section after tracheotomy, and the pylorus is ligated. The ductus choledochus is tied off in its proximal part near the porta hepatis, and the bile is led into the duodenum via a polyethylene tube of a diameter of […]. A cannula or catheter is inserted into the distal part of the bile duct, into which the numerous pancreatic ducts open, immediately before it opens into the duodenum, and the volume of the secretion running off is measured in 60 minute intervals. Following a preliminary run of 60 minutes the preparations are administered.
L means the compound known from literature and characterized by the melting point, optionally UV, IR or NMR. A to C relate to the preparation according to Example 1, process A to C. These compounds were characterized by ultimate analysis. The third column indicates the percentage by which the pancreatic secretion is above the basal secretion after 5 hours (calculated on the control=100%). This value is a measure for the depot effect of the depot body tested. Column 4 indicates the intensification of the secretin effect, with the total pancreatic juice secretion having been given over 5 hours as compared with the control (0.9% of NaCl)=1.

Where a SMILES comes first, the peptide text is derived from it. Side-chain parts run from the residue outwards. [ ]: non-standard residue; d: D form. The star is where a group is joined. Cbz = O=C(OCc1ccccc1)*

As for `O=S(=O)(c1ccc(O)cc1)c1ccc(O)cc1` [4,4'-Dihydroxy-diphenyl sulfone], the “Δ% vs. control (percentage by which the pancreatic secretion is above the basal secretion after 5 hours)” value turned out to be 74% and the “Rel. Intensity of effect over 5 hours (total pancreatic juice secretion over 5 hours as compared with control)” value is 6.2.
The corresponding values for `COC(=O)c1ccc(O)cc1` [4-Hydroxy-benzoic acid-methyl-ester] are 15% and 5.3.
The corresponding values for `OCc1ccc(O)cc1` [4-Hydroxy-benzyl alcohol] are 12% and 1.3.
For the molecule `CC(=O)c1ccc(O)cc1` [4-Hydroxyacetophenone], the “Δ% vs. control (percentage by which the pancreatic secretion is above the basal secretion after 5 hours)” value is 43% and the “Rel. Intensity of effect over 5 hours (total pancreatic juice secretion over 5 hours as compared with control)” value was determined as 8.1.
The corresponding values for `O=S(=O)([O-])c1ccc(O)cc1.[Na+]` [4-Hydroxybenzene-sulfonic acid-Na] are 18% and 2.7.
The corresponding values for `O=C(O)c1ccc(O)cc1` [4-Hydroxybenzoic acid] are 38% and 3.8.
For the molecule `O=C(c1ccccc1)c1ccc(O)cc1` [4-Hydroxybenzophenone], the “Δ% vs. control (percentage by which the pancreatic secretion is above the basal secretion after 5 hours)” value is listed as 70% and the “Rel. Intensity of effect over 5 hours (total pancreatic juice secretion over 5 hours as compared with control)” value was determined as 6.7.
The corresponding values for `Oc1cccc2cccnc12` [8-Hydroxyquinoline] are 37% and 4.7.
In the same order, the values of `O=C(N[C@@H](Cc1ccc(O)cc1)C(=O)O)OCc1ccccc1` [Benzyloxycarbonyl-L-tyrosine] are 7% and 5.9.
The corresponding values for `O=C(N[C@@H](Cc1ccc(O)cc1)C(=O)N[C@@H](Cc1ccc(O)cc1)C(=O)O)OCc1ccccc1` [Benzyloxycarbonyl-L-tyrosyl-L-tyrosine] (Cbz-Tyr-Tyr-OH) are 62% and 7.5.
As to `O=C(NCCNC(=O)c1ccc(O)cc1O)c1ccc(O)cc1O` [Bis-(2,4-dihydroxybenzoyl-)-diaminoethane], the “Δ% vs. control (percentage by which the pancreatic secretion is above the basal secretion after 5 hours)” value worked out at 69% and the “Rel. Intensity of effect over 5 hours (total pancreatic juice secretion over 5 hours as compared with control)” value amounted to 6.5.
Turning to `O=C(N[C@@H](Cc1ccc(O)cc1)C(=O)NCCCC[C@H](NC(=O)[C@H](Cc1ccc(O)cc1)NC(=O)c1cc(O)cc(O)c1)C(=O)N(CCO)CCO)c1cc(O)cc(O)c1` [Nα,Nε-Bis(3,5-dihydroxybenzoyl-L-tyrosyl)-L-lysine-diethanol-amide], the “Δ% vs. control (percentage by which the pancreatic secretion is above the basal secretion after 5 hours)” value was determined as 86% and the “Rel. Intensity of effect over 5 hours (total pancreatic juice secretion over 5 hours as compared with control)” value came to 8.8.
The corresponding values for `O=C(N[C@@H](Cc1ccc(O)cc1)C(=O)NCCCC[C@@H](NC(=O)[C@H](Cc1ccc(O)cc1)NC(=O)OCc1ccccc1)C(=O)O)OCc1ccccc1` [Nα,Nε-Bis-(benzyloxycarbonyl-L-tyrosyl)-D-lysine] (Cbz-Tyr-[dK]([Tyr-Cbz])-OH) are 13% and 1.5.
The corresponding values for `NC(=O)[C@H](CCCCNC(=O)[C@H](Cc1ccc(O)cc1)NC(=O)OCc1ccccc1)NC(=O)[C@H](Cc1ccc(O)cc1)NC(=O)OCc1ccccc1` [Nα,Nε-Bis-(benzyloxycarbonyl-L-tyrosyl)-L-lysine-amide] (Cbz-Tyr-Lys([Tyr-Cbz])-NH2) are 90% and 8.4.
The corresponding values for `COC(=O)[C@H](CCCCNC(=O)[C@H](Cc1ccc(O)cc1)NC(=O)OCc1ccccc1)NC(=O)[C@H](Cc1ccc(O)cc1)NC(=O)OCc1ccccc1` [Nα,Nε-Bis-(benzyloxycarbonyl-L-tyrosyl)-L-lysine-methyl ester] (Cbz-Tyr-Lys([Tyr-Cbz])-OMe) are 93% and 8.2.
Regarding `O=C(N[C@@H](Cc1ccc(O)cc1)C(=O)NCCCC[C@H](NC(=O)[C@H](Cc1ccc(O)cc1)NC(=O)OCc1ccccc1)C(=O)O)OCc1ccccc1` [Nα,Nε-Bis-(benzyloxycarbonyl-L-tyrosyl)-L-lysine] (Cbz-Tyr-Lys([Tyr-Cbz])-OH), the “Δ% vs. control (percentage by which the pancreatic secretion is above the basal secretion after 5 hours)” value is 48% and the “Rel. Intensity of effect over 5 hours (total pancreatic juice secretion over 5 hours as compared with control)” value came to 7.0.
For `Oc1ccccc1` [Phenol], the “Δ% vs. control (percentage by which the pancreatic secretion is above the basal secretion after 5 hours)” value is reported as 51% and the “Rel. Intensity of effect over 5 hours (total pancreatic juice secretion over 5 hours as compared with control)” value was 8. Moreover, the “protracted and intensified action of secretin (in words)” value (subcutaneous secretin preparations with depot body) is given as “clearly evident”.
For `O=C(CCc1ccc(O)cc1)c1c(O)cc(O)cc1O` [Phloretin], the “Δ% vs. control (percentage by which the pancreatic secretion is above the basal secretion after 5 hours)” value stood at 180% and the “Rel. Intensity of effect over 5 hours (total pancreatic juice secretion over 5 hours as compared with control)” value is recorded as 8.2.
For `Oc1cc(O)cc(O)c1` [Phloroglucine], the “Δ% vs. control (percentage by which the pancreatic secretion is above the basal secretion after 5 hours)” value turned out to be 15% and the “Rel. Intensity of effect over 5 hours (total pancreatic juice secretion over 5 hours as compared with control)” value is given as 6.6.
`Oc1cccc(O)c1O` [Pyrogallol]: the “Δ% vs. control (percentage by which the pancreatic secretion is above the basal secretion after 5 hours)” value came out at 41% and the “Rel. Intensity of effect over 5 hours (total pancreatic juice secretion over 5 hours as compared with control)” value is listed as 5.1.
In the same order, the values of `Oc1cccc(O)c1` [Resorcinol] are 55% and 6.1.
For `O=C(NCCN(CCN(CCNC(=O)c1c(O)cccc1O)C(=O)c1c(O)cccc1O)C(=O)c1c(O)cccc1O)c1c(O)cccc1O` [Tetra-(2,6-dihydroxybenzoyl)-triethylene-tetramine], the “Δ% vs. control (percentage by which the pancreatic secretion is above the basal secretion after 5 hours)” value is 78% and the “Rel. Intensity of effect over 5 hours (total pancreatic juice secretion over 5 hours as compared with control)” value is 8.1.
In the same order, the values of `O=C(NCCN(CCN(CCNC(=O)c1ccccc1O)C(=O)c1ccccc1O)C(=O)c1ccccc1O)c1ccccc1O` [Tetra-(2-hydroxybenzoyl)-triethylene-tetramine] are 91% and 9.0.
Consider `O=C(NCCN(CCN(CCNC(=O)c1cc(O)cc(O)c1)C(=O)c1cc(O)cc(O)c1)C(=O)c1cc(O)cc(O)c1)c1cc(O)cc(O)c1` [Tetra-(3,5-dihydroxybenzoyl)-triethylene-tetramine], for which the “Δ% vs. control (percentage by which the pancreatic secretion is above the basal secretion after 5 hours)” value was determined as 101% and the “Rel. Intensity of effect over 5 hours (total pancreatic juice secretion over 5 hours as compared with control)” value is on record as 9.7.
In the same order, the values of `O=C(N[C@@H](Cc1ccc(O)cc1)C(=O)NCCN(CCN(CCNC(=O)[C@H](Cc1ccc(O)cc1)NC(=O)c1cc(O)cc(O)c1)C(=O)[C@H](Cc1ccc(O)cc1)NC(=O)c1cc(O)cc(O)c1)C(=O)[C@H](Cc1ccc(O)cc1)NC(=O)c1cc(O)cc(O)c1)c1cc(O)cc(O)c1` [Tetra-(3,5-dihydroxybenzoyl-L-tyrosyl)-triethylene-tetramine] are 98% and 9.5.
`O=C(NCCN(CCN(CCNC(=O)c1cccc(O)c1)C(=O)c1cccc(O)c1)C(=O)c1cccc(O)c1)c1cccc(O)c1` [Tetra-(3-hydroxybenzoyl-)triethylene-tetramine]: the “Δ% vs. control (percentage by which the pancreatic secretion is above the basal secretion after 5 hours)” value is 95% and the “Rel. Intensity of effect over 5 hours (total pancreatic juice secretion over 5 hours as compared with control)” value was found to be 9.1.
In the same order, the values of `O=C(NCCN(CCNC(=O)c1cc(O)cc(O)c1)C(=O)c1cc(O)cc(O)c1)c1cc(O)cc(O)c1` [Tris-(3,5-dihydroxybenzoyl-diethylene-triamine] are 79% and 8.6.
The corresponding values for “Bis-(2,4-dihydroxybenzoyl)-1,4-diaminobutane” are 83% and 6.7.
The corresponding values for “Bis-(2,4-dihydroxybenzoyl-L-tyrosine)-diaminoethane” are 82% and 6.0.
